Assay results from patent US20240409585A1, “MACROCYCLIC IMMUNOMODULATORS” (priority 2021, published 2024).
Where two headings read alike, the source gives them in different places. Numbered stars: 1 amine (or outer) side, 2 acyl side, 3 side chain; on linkers, the order of the positions; unused ones are H or OH. Bridge positions count the residues as written; N and C are the ends. Square brackets hold non-standard residues; d marks the D form. Peptide text beside a SMILES is read from it. * marks the point of attachment. Bip(4'-COOH) = N[C@@H](Cc1ccc(-c2ccc(C(=O)O)cc2)cc1)C(=O)O; Bip(4'-NHAc) = CC(=O)Nc1ccc(-c2ccc(C[C@H](N)C(=O)O)cc2)cc1; Phe(3-CF3) = N[C@@H](Cc1cccc(C(F)(F)F)c1)C(=O)O; Ala(morpholin-4-yl) = N[C@@H](CN1CCOCC1)C(=O)O; Phe(4-COOH) = N[C@@H](Cc1ccc(C(=O)O)cc1)C(=O)O; Bip = N[C@@H](Cc1ccc(-c2ccccc2)cc1)C(=O)O; Phe(4-Cl) = N[C@@H](Cc1ccc(Cl)cc1)C(=O)O; Abu(3R-NH2) = C[C@@H](N)[C@H](N)C(=O)O; Phe(3-Me) = Cc1cccc(C[C@H](N)C(=O)O)c1; Glutaryl = O=C(CCCC(=O)[*:2])[*:1]; hCha = N[C@@H](CCC1CCCCC1)C(=O)O; hPhe = N[C@@H](CCc1ccccc1)C(=O)O; 3Pal = N[C@@H](Cc1cccnc1)C(=O)O; Cha = N[C@@H](CC1CCCCC1)C(=O)O; Carboxymethyl = O=C(O)C*; NMeA = CN[C@@H](C)C(=O)O; Orn = NCCC[C@H](N)C(=O)O; Dab = NCC[C@H](N)C(=O)O; Dap = NC[C@H](N)C(=O)O

How the values were obtained:
[1] = target: T1, Alexa fluor-647 labeled human PD-L1-Ig binding to Jurkat cell line over-expressing human PD-1 (Homo sapiens, UniProt Q15116); experiment: Jurkat-PD-1 Cell Binding High-Content Screening Assay (CBA): Method 3 (Alexa fluor-647 labeled PD-L1-Ig); settings: Jurkat-PD-1 cells, Alexa fluor-647 labeled PD-L1-Ig 177 nM
T1 construct: expressed in transfected cells; host or cells: Jurkat
Method in brief: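 Readout by high-content imaging of PFA-fixed, Hoechst-stained cells after 1 h with 177 nM (final) Alexa fluor-647 PD-L1-Ig. Compound was added first to hPD-1 Jurkat cells in RPMI plus 10% FCS for 2 h at 37 °C.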

[2] = target: T2, PD1-PDL1 protein-protein binding interaction [hPD1(25-167)-hIgG, hPD-L1 (19-239)-6xHis] (Homo sapiens, UniProt Q15116); experiment: HTRF Assay (TR-FRET); settings: 5 nM hPD1-hIgG, 5 nM hPD-L1-6xHis, 24 hours at 25° C., head μM
T2 construct: hPD1(25-167)-hIgG, BMS
Method: A time-resolved fluorescence resonance energy transfer (TR-FRET) assay was employed to measure the inhibition of the PD1-PDL1 protein-protein binding interaction. The reaction buffer was prepared by mixing the HiBlock buffer and LANCE detection buffer (PerkinElmer, TRF1011F and CR97-100) at a 1:1 ratio. Assay reactions contained 5 nM human programmed cell death 1 [hPD1(25-167)-hIgG, BMS], 5 nM human programmed cell death ligand 1 [hPD-L1 (19-239)-6×His, BMS], in the presence of 1 nM LANCE Eu-W1024 Anti-Human IgG (Eu-anti hIgG, PerkinElmer, AD0074) and 20 nM SureLight Allophycocyanin-anti-6×His antibody (APC-anti-6×His, PerkinElmer, AD0059H). Test compounds were evaluated in a 10-point dose-response format with serial three-fold dilutions starting from a 2 uM top concentration. Reactions were carried out in a total volume of 10 uL in 384-well microtiter plates (Proxiplate white, PerkinElmer, 6008289). Plates were sealed and incubated for 24 hours at 25° C. After 24 hours, the TR-FRET signal was measured using a PerkinElmer EnVision multimode plate reader and the resulting ratiometric data set (signal at 665 nm/615 nm, multiplied by a factor of 10,000) was recorded. The concentration giving half-maximal inhibition (the IC50) was obtained by fitting the data to a four-parameter logistic equation using Graphpad Prism or Dotmatics.

[3] = head μM, read-out: CBA Method 3 μM

T1 sequence (Q15116 25-288): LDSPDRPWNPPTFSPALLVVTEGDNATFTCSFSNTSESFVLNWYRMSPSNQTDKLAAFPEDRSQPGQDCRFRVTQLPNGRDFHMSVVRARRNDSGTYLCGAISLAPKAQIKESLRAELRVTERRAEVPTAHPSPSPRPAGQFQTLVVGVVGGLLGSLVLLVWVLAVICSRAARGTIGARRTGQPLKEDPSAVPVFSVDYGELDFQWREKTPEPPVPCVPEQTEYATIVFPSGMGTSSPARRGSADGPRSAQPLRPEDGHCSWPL
T2 sequence (Q15116 25-167): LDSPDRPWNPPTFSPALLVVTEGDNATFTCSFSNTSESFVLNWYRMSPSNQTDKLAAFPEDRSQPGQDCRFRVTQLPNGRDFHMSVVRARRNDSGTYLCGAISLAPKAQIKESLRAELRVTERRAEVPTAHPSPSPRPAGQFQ

IC50 [1, 3]	IC50 [2]	IC50 ([1]; nM, read-out: CBA Method 3)	Compound
	0.03 µM	0.0036 µM	CC(C)C[C@H]1NC(=O)[C@H](C)N(C)C(=O)[C@H](CCC(N)=O)NC(=O)[C@H](Cc2ccc(-c3ccccc3)cc2)NC(=O)[C@H](CCc2ccccc2)NC(=O)[C@H](Cc2cccc(C(F)(F)F)c2)NC(=O)[C@H](CC(=O)O)NC(=O)[C@H](Cc2ccc(O)cc2)NC(=O)[C@H](CN2CCOCC2)NC(=O)CSC[C@@H](C(=O)N[C@@H](CCN)C(N)=O)NC(=O)[C@H](CCCN)NC(=O)[C@H](C(C)C)NC(=O)[C@H](CC2CCCCC2)NC(=O)[C@H](CCN)NC1=O [Example 5235] ({CH2CO}-[Ala(morpholin-4-yl)]YD[Phe(3-CF3)][hPhe][Bip]Q[NMeA][dL][Dab][Cha]V[Orn]C[Dab]-NH2; thioether N-14)
0.02 µM	0.02 µM		CC(C)C[C@H]1NC(=O)[C@H](C)N(C)C(=O)[C@H](CCC(N)=O)NC(=O)[C@H](Cc2ccc(-c3ccccc3)cc2)NC(=O)[C@H](Cc2ccc(OCC(=O)O)cc2)NC(=O)[C@H](Cc2cccc(C(F)(F)F)c2)NC(=O)[C@H](CC(=O)O)NC(=O)[C@H](Cc2ccc(O)cc2)NC(=O)[C@H]([C@@H](C)N)NC(=O)CSC[C@@H](C(=O)N[C@@H](CCN)C(N)=O)NC(=O)[C@H](CCCN)NC(=O)[C@H](C(C)C)NC(=O)[C@H](CC2CCCCC2)NC(=O)[C@H](CCN)NC1=O [Example 5239] ({CH2CO}-[Abu(3R-NH2)]YD[Phe(3-CF3)]Y(Carboxymethyl)[Bip]Q[NMeA][dL][Dab][Cha]V[Orn]C[Dab]-NH2; thioether N-14)
	0.08 µM	0.001 µM	Cc1cccc(C[C@@H]2NC(=O)[C@H](CC(=O)O)NC(=O)[C@H](Cc3ccc(OCC(=O)O)cc3)NC(=O)[C@H](Cc3ccc(Cl)cc3)NC(=O)CSC[C@@H](C(=O)N[C@@H](CCN)C(N)=O)NC(=O)[C@H](CCCN)NC(=O)[C@H](C(C)C)NC(=O)[C@H](CC3CCCCC3)NC(=O)[C@H](CCN)NC(=O)[C@@H](CC(C)C)NC(=O)[C@H](C)N(C)C(=O)[C@H](CCC(N)=O)NC(=O)[C@H](Cc3ccc(-c4ccccc4)cc3)NC(=O)[C@H](Cc3ccc(C(=O)O)cc3)NC2=O)c1 [Example 5288] ({CH2CO}-[Phe(4-Cl)]Y(Carboxymethyl)D[Phe(3-Me)][Phe(4-COOH)][Bip]Q[NMeA][dL][Dab][Cha]V[Orn]C[Dab]-NH2; thioether N-14)
	0.03 µM	0.0064 µM	CC(C)C[C@H]1NC(=O)[C@H](C)N(C)C(=O)[C@H](CCC(N)=O)NC(=O)[C@H](Cc2ccc(-c3ccccc3)cc2)NC(=O)[C@H](CCc2ccccc2)NC(=O)[C@H](Cc2cccc(C(F)(F)F)c2)NC(=O)[C@H](CC(=O)O)NC(=O)[C@H](Cc2cccnc2)NC(=O)[C@H]([C@@H](C)N)NC(=O)CSC[C@@H](C(=O)N[C@@H](CCN)C(N)=O)NC(=O)[C@H](CCCN)NC(=O)[C@H](C(C)C)NC(=O)[C@H](CC2CCCCC2)NC(=O)[C@H](CCN)NC1=O [Example 5244] ({CH2CO}-[Abu(3R-NH2)][3Pal]D[Phe(3-CF3)][hPhe][Bip]Q[NMeA][dL][Dab][Cha]V[Orn]C[Dab]-NH2; thioether N-14)
	0.03 µM	0.0076 µM	Cc1cccc(C[C@@H]2NC(=O)[C@H](CC(=O)O)NC(=O)[C@H](Cc3ccc(OCC(=O)O)cc3)NC(=O)[C@H](Cc3ccc(-c4ccc(C(=O)O)cc4)cc3)NC(=O)CSC[C@@H](C(=O)N[C@@H](CCN)C(N)=O)NC(=O)[C@H](CCCN)NC(=O)[C@H](C(C)C)NC(=O)[C@H](CC3CCCCC3)NC(=O)[C@H](CCN)NC(=O)[C@@H](CC(C)C)NC(=O)[C@H](C)N(C)C(=O)[C@H](CCC(N)=O)NC(=O)[C@H](Cc3ccc(-c4ccccc4)cc3)NC(=O)[C@H](Cc3ccc(C(=O)O)cc3)NC2=O)c1 [Example 5177] ({CH2CO}-[Bip(4'-COOH)]Y(Carboxymethyl)D[Phe(3-Me)][Phe(4-COOH)][Bip]Q[NMeA][dL][Dab][Cha]V[Orn]C[Dab]-NH2; thioether N-14)
	0.03 µM	0.0022 µM	CC(C)C[C@H]1NC(=O)[C@H](C)N(C)C(=O)[C@H](CCC(N)=O)NC(=O)[C@H](Cc2ccc(-c3ccccc3)cc2)NC(=O)[C@H](CCc2ccccc2)NC(=O)[C@H](Cc2cccc(C(F)(F)F)c2)NC(=O)[C@H](CC(=O)O)NC(=O)[C@H](Cc2cccnc2)NC(=O)[C@H](CN2CCOCC2)NC(=O)CSC[C@@H](C(=O)N[C@@H](CCN)C(N)=O)NC(=O)[C@H](CCCN)NC(=O)[C@H](C(C)C)NC(=O)[C@H](CC2CCCCC2)NC(=O)[C@H](CCN)NC1=O [Example 5243] ({CH2CO}-[Ala(morpholin-4-yl)][3Pal]D[Phe(3-CF3)][hPhe][Bip]Q[NMeA][dL][Dab][Cha]V[Orn]C[Dab]-NH2; thioether N-14)

The next lines start with the compound.

Compound	IC50 [1, 3]	IC50 [2]	IC50 ([1]; nM, read-out: CBA Method 3)
CC(=O)Nc1ccc(-c2ccc(C[C@@H]3NC(=O)CSC[C@@H](C(=O)N[C@@H](CCN)C(N)=O)NC(=O)[C@H](CCCN)NC(=O)[C@H](C(C)C)NC(=O)[C@H](CC4CCCCC4)NC(=O)[C@H](CCN)NC(=O)[C@@H](CC(C)C)NC(=O)[C@H](C)N(C)C(=O)[C@H](CCC(N)=O)NC(=O)[C@H](Cc4ccc(-c5ccccc5)cc4)NC(=O)[C@H](Cc4ccc(C(=O)O)cc4)NC(=O)[C@H](Cc4cccc(C)c4)NC(=O)[C@H](CC(=O)O)NC(=O)[C@H](Cc4ccc(OCC(=O)O)cc4)NC3=O)cc2)cc1 [Example 5173] ({CH2CO}-[Bip(4'-NHAc)]Y(Carboxymethyl)D[Phe(3-Me)][Phe(4-COOH)][Bip]Q[NMeA][dL][Dab][Cha]V[Orn]C[Dab]-NH2; thioether N-14)	0.02 µM	0.07 µM	
Cc1cccc(C[C@@H]2NC(=O)[C@H](CC(=O)O)NC(=O)[C@H](Cc3ccc(OCC(=O)O)cc3)NC(=O)[C@H](CCC3CCCCC3)NC(=O)CSC[C@@H](C(=O)N[C@@H](CCN)C(N)=O)NC(=O)[C@H](CCCN)NC(=O)[C@H](C(C)C)NC(=O)[C@H](CC3CCCCC3)NC(=O)[C@H](CCN)NC(=O)[C@@H](CC(C)C)NC(=O)[C@H](C)N(C)C(=O)[C@H](CCC(N)=O)NC(=O)[C@H](Cc3ccc(-c4ccccc4)cc3)NC(=O)[C@H](Cc3ccc(C(=O)O)cc3)NC2=O)c1 [Example 5186] ({CH2CO}-[hCha]Y(Carboxymethyl)D[Phe(3-Me)][Phe(4-COOH)][Bip]Q[NMeA][dL][Dab][Cha]V[Orn]C[Dab]-NH2; thioether N-14)		0.03 µM	0.0045 µM
CC(C)C[C@H]1NC(=O)[C@H](C)N(C)C(=O)[C@H](Cc2ccc(C(=O)O)cc2)NC(=O)[C@H](Cc2ccc(-c3ccccc3)cc2)NC(=O)[C@H](Cc2ccc(C(=O)O)cc2)NC(=O)[C@H](Cc2cccc(C(F)(F)F)c2)NC(=O)[C@H](CC(=O)O)NC(=O)[C@H](Cc2ccc(C(=O)O)cc2)NC(=O)[C@H](CC2CCCCC2)NC(=O)CSC[C@@H](C(=O)N[C@@H](CCN)C(N)=O)NC(=O)[C@H](CNC(=O)CCCC(=O)O)NC(=O)[C@H](C(C)C)NC(=O)[C@H](CC2CCCCC2)NC(=O)[C@H](CCN)NC1=O [Example 5229] ({CH2CO}-[Cha][Phe(4-COOH)]D[Phe(3-CF3)][Phe(4-COOH)][Bip][Phe(4-COOH)][NMeA][dL][Dab][Cha]V[Dap](Glutaryl)C[Dab]-NH2; thioether N-14)		0.04 µM	0.0038 µM
Cc1cccc(C[C@@H]2NC(=O)[C@H](CC(=O)O)NC(=O)[C@H](Cc3ccc(OCC(=O)O)cc3)NC(=O)[C@H](CN3CCOCC3)NC(=O)CSC[C@@H](C(=O)N[C@@H](CCN)C(N)=O)NC(=O)[C@H](CCC(N)=O)NC(=O)[C@H](C(C)C)NC(=O)[C@H](CC3CCCCC3)NC(=O)[C@H](CCN)NC(=O)[C@@H](CC(C)C)NC(=O)[C@H](C)N(C)C(=O)[C@H](CCC(N)=O)NC(=O)[C@H](Cc3ccc(-c4ccccc4)cc3)NC(=O)[C@H](CCc3ccccc3)NC2=O)c1 [Example 5221] ({CH2CO}-[Ala(morpholin-4-yl)]Y(Carboxymethyl)D[Phe(3-Me)][hPhe][Bip]Q[NMeA][dL][Dab][Cha]VQC[Dab]-NH2; thioether N-14)		0.01 µM	0.003 µM
CC(C)C[C@H]1NC(=O)[C@H](C)N(C)C(=O)[C@H](CCC(N)=O)NC(=O)[C@H](Cc2ccc(-c3ccccc3)cc2)NC(=O)[C@H](Cc2ccc(OCC(=O)O)cc2)NC(=O)[C@H](Cc2cccc(C(F)(F)F)c2)NC(=O)[C@H](CC(=O)O)NC(=O)[C@H](Cc2ccc(O)cc2)NC(=O)[C@H](CN2CCOCC2)NC(=O)CSC[C@@H](C(=O)N[C@@H](CCN)C(N)=O)NC(=O)[C@H](CCCN)NC(=O)[C@H](C(C)C)NC(=O)[C@H](CC2CCCCC2)NC(=O)[C@H](CCN)NC1=O [Example 5237] ({CH2CO}-[Ala(morpholin-4-yl)]YD[Phe(3-CF3)]Y(Carboxymethyl)[Bip]Q[NMeA][dL][Dab][Cha]V[Orn]C[Dab]-NH2; thioether N-14)		0.03 µM	0.0044 µM
